Laboratory results as given in patent US20250002446A1, “Acetoacetate Based Ketals” (ARXADA AG, priority 2021, published 2025).

Test: Acetal cleavage in simulated gastric fluid (SGF)
Format: physicochemical
Conditions: 35-37° C., EtOAc extract analyzed by thin layer chromatography
Experimental: Acetal cleavage in simulated gastric fluid (SGF): propane-1,2,3-triyl tris(2-(2,4-dimethyl-1,3-dioxan-2-yl)acetate) (1 g, 2 mmol, 1 eq) was mixed with simulated gastric fluid (SGF) (5 g, 5 rel. eq.) at 35-37° C. After 30 min, 1 h and 2 h the mixture was sampled and extracted with EtOAc.

CC1CCOC(C)(CC(=O)OCC(COC(=O)CC2(C)OCCC(C)O2)OC(=O)CC2(C)OCCC(C)O2)O1 (centres unmarked) [propane-1,2,3-triyl tris(2-(2,4-dimethyl-1,3-dioxan-2-yl)acetate)]
hydrolysis to 1,3-butanediol and propane-1,2,3-triyl tris(3-oxobutanoate) (after 30 min): a majority of the product had hydrolyzed | hydrolysis to 1,3-butanediol and propane-1,2,3-triyl tris(3-oxobutanoate) (after 1 h): hydrolyzation was complete
